From US20100160442A1, “FORMULATIONS FOR CANCER TREATMENT” (priority 2006, published 2010)
≈ marks a conversion by molar mass, not a printed value. Where “and” joins values, the source holds several entries; their conditions need not be identical. Equal values may be shown once.

Columns and labels:
[1] = Compounding studies: time for drug substance to dissolve in 25% HPBCD; assay type: physicochemical
Procedure: 1. 300 mg of BA was added to 30 ml of a 25% HPBCD (containing 0.6% saline) and mixed using a magnetic stirrer. The drug substance dissolved in 4 hours. This is deemed to be an unacceptably long time for a viable manufacturing process and it was decided to evaluate a procedure involving dissolving the drug substance directly in the HPBCD. 2. In a second study 500 mg of BA dissolved in a 50 ml of a 25% HPBCD vehicle (no saline) in approx 90 minutes. The dissolution rate of BA was deemed to be a more acceptable time and provides some prospect for a viable larger scale process. Further excipients could be added after the drug substance has been dissolved.

[2] = Saturated solubility of BA in self emulsifying lipid (SELF) samples, UV 320 nm; assay type: physicochemical
Procedure: Saturated Solubility Test for Liquid SELF Samples: 2 ml of each liquid SELF was measured into 8 ml screw cap glass bottle using a Finnpipette. Aliquots of 50 mg of the API were then added until the mixture appeared to be saturated. The mixtures were sonicated for 30 minutes, and then observed to see if saturation had been maintained. Aliquots of 25 mg of the API were further added to non-saturated samples while stirring; these were sonicated for a further 30 minutes. This process was repeated until saturation was attained and maintained after sonication.
The liquid samples were then placed in the Variomatic water bath at 25° C. and left to stir for two nights. Each of the SELF samples was purged with nitrogen gas after use to minimize oxidation.
The saturated liquid samples were centrifuged at a speed of 4000 rpm for 10 minutes at 25° C.
Saturated Solubility Test for Semi-Solid SELF Samples: Prior to dispensing, semi-solid lipids were melted in a dry oven at 60° C. The semi-solids were dispensed into screw cap bottles; aliquots of the API were added to attain and maintain saturation. The saturated semi-solids were left stirring at 60° C.
The following day the stirrer was switched off but heating was maintained at 60° C. for 1 hour. This was to allow the dispersed solid particles to sediment. 0.1 ml was taken from the top clear layer of each of the saturated semi-solid samples and diluted with acetonitrile.
UV Analysis: The saturated samples and the lipid vehicles were diluted with acetonitrile at the same ratio. The samples were diluted with acetonitrile to obtain an absorbance between 0.1 to 1. The absorbance of the diluted lipid vehicles were used as the baseline for the absorbance readings of the active sample. The diluted samples were scanned at a fixed wavelength of 320 nm. The concentration of the API was calculated using the E^11 value, derived from the API concentration in acetonitrile.
Saturated Solubility: Saturated solubility was carried out on the six SELF samples (Gattefosse) that were miscible with acetonitrile. These samples were stirred over two nights.
Saturated solubility of freshly prepared lipid samples: Saturated solubility was carried out on each of the freshly prepared semi-solid lipid samples as described above. The results in table 9-8 are based on equilibration of saturated samples over two nights.

Structure (SMILES): NC(=O)c1ccc(I)c([N+](=O)[O-])c1 [BA, 4-iodo-3-nitrobenzamide]
- Time for drug substance to dissolve ([1]; 300 mg of BA in 30 ml of 25% HPBCD containing 0.6% saline, magnetic stirrer): 4 h
- Time for drug substance to dissolve ([1]; 500 mg of BA in 50 ml of 25% HPBCD vehicle (no saline)): approx 90 minutes
- Solubility Enhancement vs. water ([2]; SELF 27A): 1074
- Mean Conc. ([2]; SELF 27A (Gattefosse, semi-solid), after 2 nights): 215000 µg/mL
- Mean Conc. ([2]; SELF 27A (Gattefosse, semi-solid), after 2 nights, listed as API): 214730 µg/mL
- Solubility Enhancement vs. water ([2]; SELF 27B): 524
- Mean Conc. ([2]; SELF 27B (Gattefosse, semi-solid), after 2 nights): 105000 µg/mL
- Solubility Enhancement vs. water ([2]; SELF 27D): 699
- Mean Conc. ([2]; SELF 27D (Gattefosse, liquid), after 2 nights): 140000 µg/mL
- Solubility Enhancement vs. water ([2]; SELF 27E): 675 and 532
- Mean Conc. ([2]; SELF 27E (Gattefosse, liquid), after 2 nights): 107000 µg/mL
- Solubility Enhancement vs. water ([2]; SELF 27F): 804
- Mean Conc. ([2]; SELF 27F (Gattefosse, liquid), after 2 nights): 161000 µg/mL
- Solubility Enhancement vs. water ([2]; SELF 27G): 695
- Mean Conc. ([2]; SELF 27G (Gattefosse, semi-solid), after 2 nights): 139000 µg/mL
- Mean Conc. ([2]; Water): 200 µg/mL
- Mean Conc. ([2]; freshly prepared SELF F1, after 2 nights): 185000 µg/mL
- Mean Conc. ([2]; freshly prepared SELF F1, after 2 nights, listed as API): 184760 µg/mL
- Mean Conc. ([2]; freshly prepared SELF F3, after 2 nights): 87000 µg/mL
- Mean Conc. ([2]; freshly prepared SELF F4, after 2 nights): 42000 µg/mL
- Mean Conc. ([2]; freshly prepared SELF F5, after 2 nights): 75000 µg/mL
- Mean Conc. ([2]; freshly prepared SELF F6, after 2 nights): 76000 µg/mL
- Mean Conc. ([2]; freshly prepared SELF F7, after 2 nights): 135000 µg/mL
- solubility ([2]; water, read-out: Mean Conc.): 200 µg/mL (≈ 685 µM)
